# According to patent US7026292B1, “Compositions and therapeutic methods using morphogenic proteins and stimulatory factors” (Stryker Corporation, priority 1995, dated 2006):
# Test system: FRC (fetal rat calvarial) cells
# Test: Alkaline phosphatase (AP) activity assay in FRC cells
# Assay type: cell-based
# Settings: for Stimulation of OP-1 osteogenic induction (figure title): OP-1 500 ng/ml (FIG. 1, FIG. 11); for MPSF function in concert with OP-1 (figure title): OP-1 200 ng/ml (FIGS. 5–10)
# Experimental: A preferred assay for testing potential MPSFs with OP-1 for osteogenic activity is the alkaline phosphatase (AP) enzymatic assay. AP is an osteoblast differentiation marker in primary osteoblastic FRC. (fetal rat calvarial) cells. The OP-1-stimulated AP activity is the result of increased steady-state AP mRNA levels as measured by Northern analysis. The procedure is generally as follows.
# Primary osteoblast cell cultures were prepared from fetal rat calvaria using published procedures (M. A. Aronow et al., J. Cell Physiol., 143, pp. 213–221 (1990); T. K. McCarthy et al., J. Bone Miner. Res., 3, pp. 401–8 (1988)). Briefly, cells were harvested by sequential collagenase digestions of the calvarium and cells from digestions III to V were pooled. Fetal rat calvaria (FRC) cells were plated in complete medium (MEM, alpha; GIBCO/BRL, Grand Island, N.Y.) containing 10% fetal bovine serum, vitamin C (100 μg/ml), and antibiotics (100 U/ml penicillin, and […]). Cultures were incubated at 37° C. with 95% air/5% CO2 for several days to reach confluence. Cells were then subcultured for experimentations.
# FRC cells were subcultured in 48-well plates (COSTAR, Cambridge, Mass.) in complete MEM medium with 10% fetal bovine serum until confluent in about 4 days. Confluent cells were rinsed with Hank's balanced salt solution (HBSS) and treated with serum-free α-MEM medium (with 0.1% BSA, 100 U/ml penicillin, and […]) containing the appropriate solvent vehicle (50% acetonitrile/0.1% trifluoroacetic acid for OP-1 treatment or 0.1N acetic acid for IGFI treatment) or recombinant human OP-1, or IGFI at the concentrations indicated. Solvent vehicle concentration in the culture medium never exceeded 0.1%. At the end of treatment, cells were lysed and total cellular alkaline phosphatase activity was measured (typically after 48 hours of treatment).
# Total cellular alkaline phosphatase activity was determined using a commercial assay kit (Sigma, St. Louis, Mo.). Cell lysates were prepared by aspirating the medium from the 48-well plate, rinsing the cells with ice-cold PBS, and lysing the cells with 0.05% Triton X-100 and sonication for 60 sec. Alkaline phosphatase activity in the lysates was measured in 2-amino-2-methyl-1-propanol buffer (pH 10.3) with p-nitrophenyl phosphate as substrate at 37° C. Reactions were performed in 96-well plates for 1–2 h. Following color development, reactions were terminated with 0.5N NaOH. Absorbance of the reaction was measured at 405 nm using a Hewlett Packard Genenchem automatic plate reader. Total protein level in the lysates was measured according to Bradford (M. Bradford, Anal. Biochem., 72, pp. 248–54 (1976)) using bovine serum albumin as a standard. Alkaline phosphatase activity was expressed as nmol p-nitrophenol liberated per microgram of total cellular protein. […]
# At least four experimental groups were tested: control cells treated with no OP-1 or MPSF; group I cells treated with increasing concentrations of MPSF alone; […]; and group III cells, […] concentrations of the MPSF.
# [1] = IGF-I + OP-1 500 ng/ml (FIG. 1)
# [2] = 0.05 nM or 0.5 nM insulin + 200 ng/ml OP-1, 48 hours (FIG. 8)
# [3] = 0.5 nM HC + 200 ng/ml OP-1, 48 hours (FIG. 7)
# [4] = PG 5 nM + 200 ng/ml OP-1, 48 hours (FIG. 10)
compound,measurement,setting,value
"IGF-I: insulin-like growth factor I, tested as morphogenic protein stimulatory factor (MPSF)",Stimulation of OP-1 osteogenic induction (figure title),AP activity in FRC cells,stimulates OP-1 osteogenic induction
same,Potentiation of OP-1-stimulated AP activity by IGF-I,"IGF-I 10 ng/ml, OP-1 100 ng/ml (FIG. 3)",1.5–2 fold
same,"Synergistic effect on AP level, timing of IGF-I addition","IGF-I 25 ng/ml added 6 h or later after OP-1 500 ng/ml, 48 h (FIG. 4)",reduced significantly
same,Maximum enhancement of OP-1-stimulated AP activity by IGF-I,"IGF-I 25 ng/ml, OP-1 200 ng/ml (FIG. 3)",about 2.5 fold
same,Stimulation of AP activity by IGF-I in the absence of OP-1,"IGF-I 1–100 ng/ml, no OP-1 (FIG. 3)",did not stimulate AP activity
same,Enhancement of OP-1-stimulated AP activity by IGF-I,[1],3–4 fold
same,Kind of stimulatory effect of IGF-I on OP-1-stimulated AP activity,[1],synergistic
same,Potentiation of OP-1-stimulated AP activity at higher IGF-I concentrations,IGF-I above 25 ng/ml (up to 100 ng/ml) with OP-1 (FIG. 3),no longer potentiates
same,"Synergistic effect on AP level, timing of IGF-I addition","OP-1 500 ng/ml and IGF-I 25 ng/ml added simultaneously, 48 h (FIG. 4)",maximum synergistic effect
same,Stimulation of AP activity by IGF-I alone,"exogenous IGF-I alone up to 300 ng/ml, no OP-1 (FIG. 1)",did not stimulate AP activity
same,"Synergistic effect on AP level, timing of IGF-I addition",pre-incubation with IGF-I 25 ng/ml for 24 h followed by OP-1 500 ng/ml,abolishes the synergistic effect
TGF-β,Stimulation of OP-1-induced osteogenic induction (figure title),"AP activity in FRC cells, OP-1 100, 200 or 500 ng/ml (FIG. 12)",does not stimulate OP-1-induced osteogenic induction
same,Synergistic effect of TGF-β with OP-1 on AP activity,TGF-β 0.05–3.0 ng/ml with OP-1 (FIG. 12),did not exhibit any synergistic effect
same,Stimulation of AP activity by TGF-β alone,"TGF-β alone, no OP-1 (FIG. 12)",did not stimulate AP activity
IGF-II: member of the IGF growth factor family,Stimulation of OP-1 osteogenic induction (figure title),AP activity in FRC cells,does not stimulate OP-1-induced osteogenic induction
same,Effect of IGF-II on OP-1-stimulated increase in AP activity,IGF-II 10–300 ng/ml + OP-1 500 ng/ml (FIG. 11),neither enhanced nor inhibited
same,Effect of IGF-II on the synergistic effect of IGF-I on OP-1,IGF-II (925 ng/ml as printed) + IGF-I 25 ng/ml + OP-1 500 ng/ml,does not further potentiate
"insulin: insulin, purchased from Sigma",Level of AP activity relative to cells treated with OP-1 alone,[2],about two-fold
same,Level of AP activity relative to control cells,[2],about four-fold
same,MPSF function in concert with OP-1 (figure title),AP activity in FRC cells,is a MPSF in concert with OP-1
same,Stimulation of AP activity by insulin alone,"insulin 0.05–5 nM alone, 48 hours (FIG. 8)",did not stimulate AP activity
"C[C@]12CCC(=O)C=C1CC[C@@H]1[C@@H]2[C@@H](O)C[C@@]2(C)[C@H]1CC[C@]2(O)C(=O)CO [HC, hydrocortisone, reference compound]",Level of AP activity relative to cells treated with OP-1 alone,[3],about two-fold
same,Level of AP activity relative to control cells,[3],about three-fold
same,MPSF function in concert with OP-1 (figure title),AP activity in FRC cells,is a MPSF in concert with OP-1
same,Stimulation of AP activity by HC alone,"HC 0.05–5 nM alone, 48 hours (FIG. 7)",did not stimulate AP activity
"CC(=O)[C@H]1CC[C@H]2[C@@H]3CCC4=CC(=O)CC[C@]4(C)[C@H]3CC[C@]12C [PG, progesterone, reference compound]",MPSF function in concert with OP-1 (figure title),AP activity in FRC cells,is a MPSF in concert with OP-1
same,Level of AP activity relative to cells treated with OP-1 alone,[4],about two-fold
same,Level of AP activity relative to control cells,[4],about four-fold
same,Stimulation of AP activity beyond control cells,"PG alone 5 nM, 48 hours (FIG. 10)",about three-fold
"hGH: growth hormone (hGH), purchased from Sigma",MPSF function in concert with OP-1 (figure title),AP activity in FRC cells,is a MPSF in concert with OP-1
same,Induction of AP activity over OP-1 alone,"all hGH concentrations tested (10–1000 ng/ml) + 200 ng/ml OP-1, 48 hours (FIG. 6)",stimulated the induction of AP activity
same,Concentration dependence of hGH stimulation of AP activity,"higher versus lower hGH concentrations + 200 ng/ml OP-1, 48 hours (FIG. 6)",more of a stimulatory effect
